Data: patent publication US20060069132A1, “Azolecarboxamide herbicides” (priority 2004, published 2006)

Tests used:
bermudagrass = assay: Test C pre-/postemergence herbicide test; assay type: in vivo, Cynodon dactylon; details: for Bermudagrass plant response rating: 500 g ai/ha
Procedure, shortened: (§1)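 Seeds were planted and sprayed preemergence with test chemicals in a non-phytotoxic solvent mixture containing surfactant; postemergence treatments went onto plants 2 to 18 cm tall (1- to 4-leaf stage). After 12 to 14 days in a greenhouse, injury was rated visually against untreated controls on a 0–100 scale.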

giant foxtail = assay: Test C pre-/postemergence herbicide test; assay type: in vivo, Setaria faberi
Procedure, shortened: as §1

cocklebur = assay: Test C pre-/postemergence herbicide test; assay type: in vivo, Xanthium strumarium; details: for Cocklebur plant response rating: 500 g ai/ha
Procedure, shortened: as §1

kochia = assay: Test C pre-/postemergence herbicide test; assay type: in vivo, Kochia scoparia
Procedure, shortened: as §1

goosegrass = assay: Test C pre-/postemergence herbicide test; assay type: in vivo, Eleusine indica
Procedure, shortened: as §1

yellow nutsedge = assay: Test C pre-/postemergence herbicide test; assay type: in vivo, Cyperus esculentus
Procedure, shortened: as §1

corn = assay: Test C pre-/postemergence herbicide test; assay type: in vivo, Zea mays
Procedure, shortened: as §1

morningglory = assay: Test C pre-/postemergence herbicide test; assay type: in vivo, Ipomoea coccinea; set-up: key to Plant response rating, Morningglory: 0 = no effect, 100 = complete control
Procedure, shortened: as §1

barnyardgrass = assay: Test C flooded paddy test; assay type: in vivo, Echinochloa crus-galli; details: for Plant response rating, Barnyardgrass: 500 g ai/ha, visual rating after 12 to 14 days
Procedure, shortened: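 Postemergence sprays were applied to plants 2 to 18 cm tall (1- to 4-leaf stage); in the flooded paddy test, barnyardgrass was grown to the 2-leaf stage. After 12 to 14 days in a greenhouse, injury was visually rated against untreated controls on a 0–100 scale (100 = complete control).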

velvetleaf = assay: Test C pre-/postemergence herbicide test; assay type: in vivo, Abutilon theophrasti
Procedure, shortened: as §1

woolly cupgrass = assay: Test C pre-/postemergence herbicide test; assay type: in vivo, Eriochloa villosa
Procedure, shortened: as §1

soybean = assay: Test C pre-/postemergence herbicide test; assay type: in vivo, Glycine max
Procedure, shortened: as §1

[1] = 62 g ai/ha, preemergence, scale 0 to 100, 0 no effect, 100 complete control
[2] = 125 g ai/ha, scale 0 (no effect) to 100 (complete control), visual, 12 to 14 days, preemergence
[3] = 250 g ai/ha, scale 0-100, preemergence
[4] = Postemergence, 250 g ai/ha, scale 0 to 100, 0 no effect, 100 complete control
[5] = Preemergence, scale 0 to 100, 0 no effect, 100 complete control
[6] = postemergence, 125 g ai/ha, scale 0 to 100
[7] = postemergence, 62 g ai/ha, scale 0 to 100
[8] = 62 g ai/ha, preemergence, scale 0 to 100
[9] = 500 g ai/ha, scale 0 to 100 (0 no effect, 100 complete control), visual, 12 to 14 days, preemergence
[10] = Postemergence, 500 g ai/ha, scale 0 to 100
[11] = 62 g ai/ha, scale 0 to 100 (0 no effect, 100 complete control)
[12] = 125 g ai/ha, scale 0 to 100 (0 no effect, 100 complete control)
[13] = 250 g ai/ha, scale of 0 to 100, 0 is no effect, 100 is complete control
[14] = scale 0 to 100 (0 no effect, 100 complete control)

CCn1nc(C(C)(C)C)cc1C(=O)Nc1cccc(OC(F)F)c1 [Compound 332]
45: Plant response rating, Velvetleaf (velvetleaf; [3]) | Plant response rating, Soybean (soybean; [7])
10: Plant response rating, Bermudagrass (bermudagrass; [6]) | Plant response rating, Foxtail, Giant (giant foxtail; [6]) | Plant response rating, Foxtail, Giant (giant foxtail; [7]) | Plant response rating, Cocklebur (cocklebur; [4]) | Plant response rating, Cocklebur (cocklebur; [6]) | Plant response rating, Goosegrass (goosegrass; [7]) | Plant response rating, Morningglory (morningglory; [6]) | Plant response rating, Cupgrass, Woolly (woolly cupgrass; [9]) | Cupgrass, Woolly plant response rating (woolly cupgrass; [10]) | Plant response rating, Cupgrass, Woolly (woolly cupgrass; [4]) | Plant response rating, Soybean (soybean; [9])
50: Plant response rating, Bermudagrass (bermudagrass; [4]) | Barnyardgrass plant response rating (barnyardgrass; [13]) | Plant response rating, Soybean (soybean; [6])
40: Plant response rating, Velvetleaf (velvetleaf; [8]) | Plant response rating, Velvetleaf (velvetleaf; [7])
20: Plant response rating, Foxtail, Giant (giant foxtail; [2]) | Foxtail, Giant plant response rating (giant foxtail; [10])
80: Plant response rating, Bermudagrass (bermudagrass; [1]) | Plant response rating, Foxtail, Giant (giant foxtail; [9]) | Plant response rating, Kochia (kochia; [7]) | Plant response rating, Goosegrass (goosegrass; [8]) | Plant response rating, Morningglory (morningglory; [4])
100: Plant response rating, Bermudagrass (bermudagrass; [2]) | Plant response rating, Bermudagrass (bermudagrass; [3]) | Bermudagrass plant response rating (bermudagrass; [5]) | Plant response rating, Kochia (kochia; [8]) | Plant response rating, Kochia (kochia; [2]) | Plant response rating, Kochia (kochia; [3]) | Plant response rating, Kochia (kochia; [9]) | Kochia plant response rating (kochia; [10]) | Plant response rating, Goosegrass (goosegrass; [3]) | Plant response rating, Goosegrass (goosegrass; [9])
0: Plant response rating, Foxtail, Giant (giant foxtail; [8]) | Plant response rating, Cocklebur (cocklebur; [8]) | Plant response rating, Cocklebur (cocklebur; [2]) | Plant response rating, Cocklebur (cocklebur; [3]) | Cocklebur plant response rating (cocklebur; [5]) | Plant response rating, Nutsedge, Yellow (yellow nutsedge; [8]) | Plant response rating, Nutsedge, Yellow (yellow nutsedge; [2]) | Plant response rating, Nutsedge, Yellow (yellow nutsedge; [3]) | Plant response rating, Nutsedge, Yellow (yellow nutsedge; [9]) | Nutsedge, Yellow plant response rating (yellow nutsedge; [10]) | Plant response rating, Nutsedge, Yellow (yellow nutsedge; [4]) | Plant response rating, Nutsedge, Yellow (yellow nutsedge; [6]) | Plant response rating, Nutsedge, Yellow (yellow nutsedge; [7]) | Plant response rating, Corn (corn; [8]) | Plant response rating, Corn (corn; [2]) | Plant response rating, Corn (corn; [3]) | Plant response rating, Corn (corn; [6]) | Plant response rating, Corn (corn; [7]) | Plant response rating, Morningglory (morningglory; [8]) | Plant response rating, Morningglory (morningglory; [2]) | Plant response rating, Morningglory (morningglory; [3]) | Plant response rating, Morningglory (morningglory; [9]) | Plant response rating, Cupgrass, Woolly (woolly cupgrass; [8]) | Plant response rating, Cupgrass, Woolly (woolly cupgrass; [2]) | Plant response rating, Soybean (soybean; [8]) | Plant response rating, Soybean (soybean; [3])
70: Bermudagrass plant response rating (bermudagrass; Postemergence, scale 0 to 100) | Plant response rating, Velvetleaf (velvetleaf; [9])
95: Plant response rating, Kochia (kochia; [4])
15: Plant response rating, Foxtail, Giant (giant foxtail; [4]) | Cocklebur plant response rating (cocklebur; Postemergence, scale 0 to 100) | Plant response rating, Goosegrass (goosegrass; [4]) | Plant response rating, Goosegrass (goosegrass; [6])
90: Plant response rating, Kochia (kochia; [6]) | Velvetleaf plant response rating (velvetleaf; [10]) | Soybean plant response rating (soybean; [10])
5: Plant response rating, Bermudagrass (bermudagrass; [7]) | Plant response rating, Cocklebur (cocklebur; [7]) | Plant response rating, Corn (corn; [9]) | Corn plant response rating (corn; [10]) | Plant response rating, Corn (corn; [4]) | Plant response rating, Morningglory (morningglory; [7]) | Barnyardgrass plant response rating (barnyardgrass; [11]) | Plant response rating, Cupgrass, Woolly (woolly cupgrass; [3]) | Plant response rating, Cupgrass, Woolly (woolly cupgrass; [6]) | Plant response rating, Cupgrass, Woolly (woolly cupgrass; [7])
85: Plant response rating, Goosegrass (goosegrass; [2]) | Plant response rating, Velvetleaf (velvetleaf; [4])
25: Barnyardgrass plant response rating (barnyardgrass; [12])
60: Plant response rating, Foxtail, Giant (giant foxtail; [3]) | Goosegrass plant response rating (goosegrass; [10]) | Plant response rating, Barnyardgrass (barnyardgrass; [14]) | Plant response rating, Velvetleaf (velvetleaf; [6]) | Plant response rating, Soybean (soybean; [4])

CCn1nc(C(C)(C)C)cc1C(=O)Nc1cc(C(=S)N(C)C)ccn1 [Compound 334]
30: Plant response rating, Cocklebur (cocklebur; [8])
60: Plant response rating, Foxtail, Giant (giant foxtail; [8]) | Plant response rating, Cocklebur (cocklebur; [2]) | Plant response rating, Cupgrass, Woolly (woolly cupgrass; [2])
25: Plant response rating, Cupgrass, Woolly (woolly cupgrass; [8])
90: Barnyardgrass plant response rating (barnyardgrass; [12])
15: Plant response rating, Soybean (soybean; [8])
80: Plant response rating, Foxtail, Giant (giant foxtail; [2]) | Plant response rating, Soybean (soybean; [3])
40: Plant response rating, Nutsedge, Yellow (yellow nutsedge; [2]) | Plant response rating, Morningglory (morningglory; [3])
70: Plant response rating, Cocklebur (cocklebur; [3]) | Barnyardgrass plant response rating (barnyardgrass; [11])
10: Plant response rating, Nutsedge, Yellow (yellow nutsedge; [8])
20: Plant response rating, Corn (corn; [2]) | Plant response rating, Morningglory (morningglory; [2])
100: Plant response rating, Bermudagrass (bermudagrass; 31 g ai/ha, scale 0 to 100, 0 no effect, 100 complete control, last section of Table C (species set of preemergence test)) | Plant response rating, Bermudagrass (bermudagrass; [1]) | Plant response rating, Bermudagrass (bermudagrass; [2]) | Plant response rating, Bermudagrass (bermudagrass; [3]) | Plant response rating, Foxtail, Giant (giant foxtail; [3]) | Plant response rating, Kochia (kochia; [8]) | Plant response rating, Kochia (kochia; [2]) | Plant response rating, Kochia (kochia; [3]) | Plant response rating, Goosegrass (goosegrass; [8]) | Plant response rating, Goosegrass (goosegrass; [2]) | Plant response rating, Goosegrass (goosegrass; [3])
0: Plant response rating, Corn (corn; [8])
95: Barnyardgrass plant response rating (barnyardgrass; [13]) | Plant response rating, Barnyardgrass (barnyardgrass; [14])
55: Plant response rating, Nutsedge, Yellow (yellow nutsedge; [3])
50: Plant response rating, Corn (corn; [3])
5: Plant response rating, Nutsedge, Yellow (yellow nutsedge; 31 g ai/ha, scale 0 to 100, last section of Table C, preemergence) | Plant response rating, Morningglory (morningglory; [8]) | Plant response rating, Velvetleaf (velvetleaf; [8])
85: Plant response rating, Velvetleaf (velvetleaf; [3]) | Plant response rating, Cupgrass, Woolly (woolly cupgrass; [3])
